Test results reported in patent US6436421B1, “Pesticide compositions” (priority 1997, dated 2002).
Read-outs that look alike come from different tables or passages of the source.

How the values were obtained:
[1] = format: physicochemical
Description: One method to evaluate the efficacy of a pesticide adjuvant is to measure its affect on the ability of the pesticide composition to resist wash-off from a surface. One skilled in the art will recognize that a pesticide which remains on the surface of a plant will be expected to have increased efficacy.
A suspension of the pesticide formulation was prepared by adding a premix of water and surfactant, with and without the polymer additives, followed by vigorous shaking of the mixtures by hand. Pieces of Parafilm™M laboratory film, a very soft, flexible, and hydrophobic film, were taped to plastic petrie dishes. The suspensions were sprayed with an automated sprayer as the petrie dishes with attached film were moved at a standard rate below the sprayer. The spray residues were allowed to dry, and a second application of spray was applied. One set of films was exposed, at an inclination of 45 degrees, to approximately 25 mm of water applied by a spray bar (equipped with TX-4 cone-type spray nozzles) that moved back and forth over the samples for a period of about 1 hour. The exposed films were allowed to dry. Another set of films was not exposed to water.
Infra-red spectra of the films were obtained by an Attenuated Total Reflection (ATR) technique. The films were pressed against a Zinc Selenide crystal that had been cleaned previously with methanol. Spectra were recorded with a Spectratech Allied Systems Fourier Transform Infra-Red Spectrometer, and stored in a computer. Peaks associated with pesticide residue were identified by inspection and peak areas were calculated by computer (Pesticide Peak Area, “PA”). A corresponding area for a Parafilm™ peak as similar as possible in peak location and size (in the same spectrum) was calculated (Film Peak Area, “FA”). […] A measure of the pesticide on the surface “P” was derived from the following calculation:
A relative measure of the amount of pesticide remaining after the above exposure to water was then derived from the following calculation: [formula]
Although the intensity of spectral peaks recorded with the ATR technique are very dependent on details of contact with the film, by obtaining a ratio of the pesticide peak to the film peak in the same spectral recording, different spectra can be compared with details of contact being compensated for, since they will have similar effects on the intensity of the pesticide absorption and the film absorption. The intensity of the pesticide peak relative to the film peak will depend on the degree of coverage of the film by the pesticide. To maximize coverage, the spraying was conducted twice. Furthermore, a wetting agent (surfactant) was included in the premix to promote wetting of the film by the spray droplets. Since exposure to water can result in re-distribution of the pesticide as well as wash-off of the pesticide, the measure of the amount remaining is only relative.
In all cases, a measured amount of pesticide was mixed with 270 grams of deionized water and 30 grams of 0.5% Silwet L-77 surfactant. This premix was divided into 50 gram portions. One portion was sprayed without adding polymer. For mixes containing polymer, 66.6 milligrams powder polymer or 1.32 g of a 5% solids dilution of the emulsion polymer were added to the 50 grams of premix.
TX-2 nozzle 12 inches above laboratory film.
58 psi (delivers 150 cc/minute).
Laboratory film moves at 1 mile/hour.
Fan nozzle 14 inches above laboratory film.
29 psi (Spray 15 cc with two passes over laboratory film at a rate to give 25 gallons/acre).

Beet Armyworm larvae = assay: Beet Armyworm control on potted rice plants using tebufenozide; format: in vivo
From the text: Rice plants grown in pots were sprayed with one of two different versions of a 300 parts per million (based on active ingredient level) suspension of tebufenozide in water. In one version, the tebufenozide was supplied as Mimic® 10 W insecticide, a wettable powder, from Rohm and Haas Company. In the second version, approximately 30% by weight of the carrier in the Mimic® 10 W insecticide was replaced with Powder V from the above examples and approximately 10% by weight of the clay carrier was replaced by Aerosol®OTB surfactant. One portion of each of the sprayed plant samples was subjected to approximately 25 millimeters of water applied by a spray bar to simulate rain. The plants were cut and fed to Beet Armyworm larvae. Percent mortality was then evaluated.

beet armyworm = assay: Beet Armyworm control under field conditions on Chinese kale; format: in vivo; conditions: 300 g of tebufenozide per hectare, compared to untreated control plot
Description: Each of two different plots of Chinese kale grown under typical field conditions was treated with one of the two tebufenozide formulations described above at an application rate of 300 g of tebufenozide per hectare in 750 liters of water per hectare. The percent beet armyworm mortality in each plot was compared to an untreated control plot.

[2] = system: Cercospora arachidicola (Early Leaf Spot); assay: Peanut field test of disease control with mancozeb fungicide; format: in vivo
Description: (§1) For grapes, single plant plots with three replicates/treatment were treated at seven day intervals, with a total of seven applications. Treatments were water-based spray mixtures of mancozeb with or without polymer additives added to the water shortly before spraying. The mixtures were applied with a backpack sprayer using carbon dioxide pressure atomization (45 psi) with a boom having three D3 (Cone) nozzles, at a rate of 640 liters/hectare. The treatments included a control with no fungicide applied, a full rate of mancozeb without additive (2.8 kg active ingredient/hectare), and a half rate of mancozeb (1.4 kg active ingredient/hectare) with or without additives. The polymer additives were used at ⅓ kg. of additive solids/kg. of active ingredient. The mancozeb formulation was a wettable powder with 75% active ingredient.
(§2) Assessments of percent infection (of grape downy mildew caused by Plasmopara viticola) of foliage were made 7 days after treatment # 7 (7DAT#7). These assessments are tabulated below. Data were analyzed by Duncan's multiple range test, using P=0.05.
Peanuts were evaluated the same as grapes except that the plots were 1 meter×5 meter (1 row), with 4 replicates per treatment, there were 9 applications, the boom had five D2 (C45) nozzles, the full rate of mancozeb was 1.6 kg active ingredient/hectare, the final assessment was 23 days after treatment #9 (23DAT#9), and the predominant disease at this time was Cercospora arachidicola (Early Leaf Spot).
(§3) Three different solid redispersible powders were evaluated; Powders I and II from the previous example and powder V, an all acrylic copolymer (Drycryl™DP-2904 redispersible powder, a cement modifier of the Rohm and Haas Company). Three different emulsion polymers were evaluated for comparison; Emulsion IV from the previous example; Emulsion VI, a poly(vinylacetate) emulsion (Rovace™ 117 emulsion from the Rohm and Haas Company, used as a general purpose adhesive component); and Emulsion VII, an acrylic emulsion polymer (Rhoplex™ 2438 emulsion from the Rohm and Haas Company, a component of elastomeric wall coatings).
(§4) In several of the evaluations, a surfactant was added to the spray mixture. When used, the surfactant was a solid powder of 90% dioctyl sodium sulfosuccinate and 10% sodium benzoate (Aerosol® OTB surfactant from Cytec Company).

[3] = system: grape downy mildew caused by Plasmopara viticola; assay: Grape field test of disease control with mancozeb fungicide; format: in vivo
Description: as §1, §2, §3, §4

[4] = Half rate, Emulsion IV, no surfactant
[5] = Half rate, Emulsion VI, no surfactant
[6] = Half rate, Emulsion VI, with surfactant
[7] = Half rate, Emulsion VII, no surfactant
[8] = Half rate, Powder I, no surfactant
[9] = Half rate, Powder II, no surfactant
[10] = Half rate, Powder II, with surfactant
[11] = Half rate, Powder V, no surfactant

Compound	% AI Retained After One Inch Spray-Bar Rain, M (mean) ([1]; No Polymer)	% AI Retained After One Inch Spray-Bar Rain, M (mean) ([1]; with Emulsion IV)	% AI Retained After One Inch Spray-Bar Rain, M (mean) ([1]; with Powder I)	% AI Retained After One Inch Spray-Bar Rain, M (mean) ([1]; with Powder II)	% AI Retained After One Inch Spray-Bar Rain, M (mean) ([1]; with Powder III)	also measured
CNC(=O)Oc1cccc2ccccc12 [carbaryl]	25%	40%	31%	32%	27%	–
CNC(=O)Oc1cccc2c1OC(C)(C)C2 [carbofuran]	3%	9%	39%	23%	16%	–
CN(C)C(CSC(N)=O)CSC(N)=O [cartap]	4%	3%	5%	8%	8%	–
N#Cc1c(Cl)c(Cl)c(Cl)c(C#N)c1Cl [chlorothalonil]	2%	12%	16%	54%	4%	–
[Cu+2].[OH-].[OH-] [copper hydroxide]	20%	11%	22%	80%	21%	–
OC(c1ccc(Cl)cc1)(c1ccc(Cl)cc1)C(Cl)(Cl)Cl [dicofol]	18%	95%	76%	62%	62%	–
N#CC(CCc1ccc(Cl)cc1)(Cn1cncn1)c1ccccc1 (stereo not shown) [fenbuconazole]	9%	83%	63%	82%	48%	–
CCCCC(C#N)(Cn1cncn1)c1ccc(Cl)cc1 (stereo not shown) [myclobutanil]	13%	74%	56%	77%	44%	–
CCOc1cc(Oc2ccc(C(F)(F)F)cc2Cl)ccc1[N+](=O)[O-] [oxyfluorfen]	17%	152%	66%	137%	55%	–
CCC(=O)Nc1ccc(Cl)c(Cl)c1 [propanil]	9%	18%	38%	27%	21%	–
CCc1ccc(C(=O)NN(C(=O)c2cc(C)cc(C)c2)C(C)(C)C)cc1 [tebufenozide]	40%	59%	71%	67%	40%	Beet Armyworm Mortality (%) (Beet Armyworm larvae; With Rain (approximately 25 millimeters of water by spray bar), 300 parts per million suspension): 28%; Beet Armyworm Mortality (%) (Beet Armyworm larvae; Without Rain, rice plants sprayed with 300 parts per million suspension): 90%; Beet Armyworm Control (%) (beet armyworm): 35%
dinitro-(1-methylheptyl) phenyl crotonate [dinocap]	3%	40%	49%	47%	19%	–
mancozeb	–	–	–	–	–	Infection on Peanut 23DAT#9 ([2]; Full rate (1.6 kg active ingredient/hectare), no polymer additive, no surfactant): 27.5 cd percent; Infection on Peanut 23DAT#9 [2, 4]: 25.0 de percent; Infection on Peanut 23DAT#9 [2, 5]: 22.5 ef percent; Infection on Peanut 23DAT#9 [2, 6]: 13.8 h percent; Infection on Peanut 23DAT#9 [2, 7]: 21.3 f percent; Infection on Peanut 23DAT#9 [2, 8]: 23.8 ef percent; Infection on Peanut 23DAT#9 [2, 9]: 32.5 c percent; Infection on Peanut 23DAT#9 [2, 10]: 17.5 g percent; Infection on Peanut 23DAT#9 [2, 11]: 22.5 ef percent; Infection on Peanut 23DAT#9 ([2]; Half rate, no polymer additive, no surfactant): 41.3 b percent; Infection on Grape 7DAT#7 ([3]; Full rate (2.8 kg active ingredient/hectare), no polymer additive, no surfactant): 41.7 cd percent; Infection on Grape 7DAT#7 ([3]; Half rate (1.4 kg active ingredient/hectare), no polymer additive, no surfactant): 63.3 b percent; Infection on Grape 7DAT#7 [3, 4]: 38.3 de percent; Infection on Grape 7DAT#7 [3, 5]: 43.3 cd percent; Infection on Grape 7DAT#7 [3, 6]: 31.7 fg percent; Infection on Grape 7DAT#7 [3, 7]: 41.7 cd percent; Infection on Grape 7DAT#7 [3, 8]: 46.7 c percent; Infection on Grape 7DAT#7 [3, 9]: 43.3 cd percent; Infection on Grape 7DAT#7 [3, 10]: 28.3 g percent; Infection on Grape 7DAT#7 [3, 11]: 46.7 c percent
manganese ethylenebisdithiocarbamate [maneb]	16%	103%	76%	108%	86%	–
